Tests used:
Parameters in all cases: species or system S. pombe
[1] = system: Seb1 SUMO-RRM388-540 R472E; assay: FA, SUMO-RRM R472E binding to RNA; conditions: SUMO-RRM388-540 R472E vs WT (Fig. 3e)
Method: (§1) Recombinant WT and mutated RRM388−540 of Seb1 with an N-terminal His6-SUMO tag were expressed from modified pOPINS3C expression vector[69] in pLysS E. coli strain. For FA assays, protein eluted from NiNTA was further purified on a HiLoad 16/60 Superdex 200 prep grade column (GE Healthcare) using an ÄKTA purifier (GE Healthcare) in 50 mM Tris pH 8.0 and 200 mM NaCl, and fractions containing the Seb1-RRM388−540 concentrated to ∼5 mg ml^−1. For crystallization and SAXS, the NiNTA eluted fractions were buffer exchanged into 50 mM Tris pH 7.5, 300 mM NaCl and 500 mM NDSB-201 using a PD-10 column (GE Healthcare) and cleaved with 3C protease (Sigma-Aldrich) at room temperature overnight. […]
(§2) For Seb1-CID1–152, binding to 75 nM of two-repeat CTD peptides containing an N-terminal 5′-fluorescein amidite (FAM)-tag (Peptides&elephants, Potsdam, Germany) was determined in 25 mM HEPES pH 7.3, 200 mM NaCl and 1 mM EDTA. For RRM388–540, binding was determined to 40 nM FAM-AUUAGUAAAA RNA (Eurofins) in 25 mM Tris-HCl pH 8.0, 100 mM NaCl, 2 mM MgCl2, 1 mM DTT, 16.7% (v/v) glycerol, 0.1% IGEPAL, 0.1 mg ml^−1 tRNA and 2.5% (v/v) RNasin (Promega). Excitation of the ligand was performed with linearly polarized light at 485 nm and emission was measured at 520 nm in parallel and perpendicular planes to the emission plane at 25 °C using a FLUOstar-Omega microplate reader (BMG-Labtech). […]

[2] = system: Seb1 SUMO-RRM388-540 F445A; assay: FA, SUMO-RRM F445A binding to RNA; conditions: for effect on RNA binding, F445A: FA, SUMO-RRM388-540 F445A vs WT (Fig. 3e)
Method: Recombinant WT and mutated RRM388−540 of Seb1 with an N-terminal His6-SUMO tag were expressed from modified pOPINS3C expression vector[69] in pLysS E. coli strain. For FA assays, protein eluted from NiNTA was further purified on a HiLoad 16/60 Superdex 200 prep grade column (GE Healthcare) using an ÄKTA purifier (GE Healthcare) in 50 mM Tris pH 8.0 and 200 mM NaCl, and fractions containing the Seb1-RRM388−540 concentrated to ∼5 mg ml^−1. For crystallization and SAXS, the NiNTA eluted fractions were buffer exchanged into 50 mM Tris pH 7.5, 300 mM NaCl and 500 mM NDSB-201 using a PD-10 column (GE Healthcare) and cleaved with 3C protease (Sigma-Aldrich) at room temperature overnight. His6-SUMO tag was removed using NiNTA beads and the cleaved RRM388−540 was further purified on a Superdex 75 10/100 GL column (GE Healthcare) in 20 mM HEPES pH 7.3, 150 mM NaCl and 500 mM NDSB-201. For crystallization trials, the eluted protein was concentrated to ∼8.7 mg ml^−1, for SAXS to ∼5 mg ml^−1.
For Seb1-CID1–152, binding to 75 nM of two-repeat CTD peptides containing an N-terminal 5′-fluorescein amidite (FAM)-tag (Peptides&elephants, Potsdam, Germany) was determined in 25 mM HEPES pH 7.3, 200 mM NaCl and 1 mM EDTA. For RRM388–540, binding was determined to 40 nM FAM-AUUAGUAAAA RNA (Eurofins) in 25 mM Tris-HCl pH 8.0, 100 mM NaCl, 2 mM MgCl2, 1 mM DTT, 16.7% (v/v) glycerol, 0.1% IGEPAL, 0.1 mg ml^−1 tRNA and 2.5% (v/v) RNasin (Promega). Excitation of the ligand was performed with linearly polarized light at 485 nm and emission was measured at 520 nm in parallel and perpendicular planes to the emission plane at 25 °C using a FLUOstar-Omega microplate reader (BMG-Labtech). All measurements were performed in at least duplicates, results were plotted against the protein concentration and Kd values were determined via curve fitting as described in ref. [70].

[3] = system: Seb1 SUMO-RRM388-540 S492A; assay: FA, SUMO-RRM S492A binding to RNA; conditions: SUMO-RRM388-540 S492A vs WT (Fig. 3e)
Method: as §1, §2

[4] = system: Seb1 SUMO-RRM388-540 F487A; assay: FA, SUMO-RRM F487A binding to RNA; conditions: SUMO-RRM388-540 F487A vs WT (Fig. 3e)
Method: as §1, §2

## AUUAGUAAAA (chemistry not fully specified) [RNA: AUUAGUAAAA]
[1]
  effect on RNA binding, R472E: completely abolishes RNA binding
[2]; listed as FAM-labelled 10 nt-RNA
  effect on RNA binding, F445A: completely abolishes RNA binding
[2]; listed as RNA
  effect on RNA binding, F445A: abolishes the interaction completely
[2]; fluorescence anisotropy, SUMO-RRM F445A, 40 nM FAM-RNA, Tris-HCl pH 8.0, 100 mM NaCl, 2 mM MgCl2, 25 °C, three technical replicates
  Kd: > 1000 µM
[3]
  effect on RNA binding, S492A: only a mild effect on binding
[4]
  effect on affinity to RNA, F487A: severely reduces the affinity to RNA
